These are literature values, as cited in publication PMC11451938 (RSC Medicinal Chemistry, 2024).

This data set deals with hNTS1. The following applies: read-out: NTS1 Ki; CHO-K1 cells expressing hNTS1.

In the case of “JMV 438: NT[8-13] in which the Arg8-Arg9 fragment was replaced with Lys8-Lys9”, the Ki was 4 nM.
